From the NIST ThermoML archive (doi:10.1016/j.fluid.2005.01.012) come the findings set out here.

Numbers after ± are expanded uncertainties.

This series can be described thus: refractive index (Na D-line) (dimensionless). The settings on record: 293.1 K; 101.33 kPa; Liquid; Standard Abbe refractometry.

As to `CCCc1ccccc1` [propylbenzene], the refractive index (commonly a measure of how strongly the sample bends light) was determined as 1.4915 ± 0.0008. Consider `CCCCCCCCCCCCCC` [tetradecane], for which the refractive index was 1.4291 ± 0.0008. For `CCCCCCCCCCCCCCCCC` [heptadecane], the refractive index came out at 1.4362 ± 0.0008.

For the compound `CN1CCCC1=O` [N-methylpyrrolidone], the refractive index is on record as 1.4696 ± 0.0008. `CCCCCCCCCCCC` [dodecane]: the refractive index is on record as 1.422 ± 0.0008.
